Measured values taken from the supplement of paper PMC10307832.

How the values were obtained:
Experiment in all cases: relative viability (nuclei count vs DMSO), 5 days (fraction); higher = more cells survive
[1] = compound: COc1cc(Nc2ncc(F)c(Nc3ccc4c(n3)NC(=O)C(C)(C)O4)n2)cc(OC)c1OC [R406] + C[C@]1(O)C[C@@H](c2nc(-c3ccc4ccc(-c5ccccc5)nc4c3)c3c(N)nccn32)C1 [Linsitinib] (partner 1 µM)
Outline: (§1)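 Values are medians from duplicate plates. Each reflects relative viability, defined as the nuclei count of treated wells over that of vehicle wells. Lung cancer cell lines in 1536-well plates were pin-tool dosed one day after seeding with one drug alone or with a fixed anchor-drug dose plus five library-drug doses (not always all listed) in √10 steps, then fixed, stained and imaged at 4× after 5 days.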

[2] = compound: O=C(/C=C/c1cccnc1)NCCCCC1CCN(C(=O)c2ccccc2)CC1 [Daporinad] + C[C@@H](Oc1cc(-c2cnn(C3CCNCC3)c2)cnc1N)c1c(Cl)ccc(F)c1Cl [Crizotinib] (partner 1 µM)
Outline: as §1

[3] = compound: O=C(/C=C/c1cccnc1)NCCCCC1CCN(C(=O)c2ccccc2)CC1 [Daporinad] + O=C(c1cc(Cc2n[nH]c(=O)c3ccccc23)ccc1F)N1CCN(C(=O)C2CC2)CC1 [Olaparib] (partner 8 µM)
Outline: as §1

[4] = compound: O=C(/C=C/c1cccnc1)NCCCCC1CCN(C(=O)c2ccccc2)CC1 [Daporinad] + Nc1nc2[nH]cc(CCc3ccc(C(=O)N[C@@H](CCC(=O)O)C(=O)O)cc3)c2c(=O)[nH]1 [Pemetrexed] (partner 0.2 µM)
Outline: as §1

Row | Cell Line | relative viability ([1]; first compound 0.08 µM) | relative viability ([1]; first compound 0.253 µM) | relative viability ([1]; first compound 0.8 µM) | relative viability ([1]; first compound 2.53 µM) | relative viability ([1]; first compound 8 µM) | relative viability ([2]; first compound 0.0005 µM) | relative viability ([2]; first compound 0.001581 µM) | relative viability ([2]; first compound 0.005 µM) | relative viability ([2]; first compound 0.01581 µM) | relative viability ([3]; first compound 0.0005 µM) | relative viability ([3]; first compound 0.001581 µM) | relative viability ([3]; first compound 0.005 µM) | relative viability ([3]; first compound 0.01581 µM) | relative viability ([4]; first compound 0.0005 µM) | relative viability ([4]; first compound 0.001581 µM) | relative viability ([4]; first compound 0.005 µM) | relative viability ([4]; first compound 0.01581 µM)
1 | LCLC-97TM1 | 0.192 | 0.191 | 0.218 | 0.172 | 0.182 | 0.443 | 0.402 | 0.605 | 0.323 | 0.435 | 0.322 | 0.201 | 0.122 | 0.17 | 0.2 | 0.165 | 0.185
2 | NCI-H647 | 0.813 | 1.21 | 1.15 | 0.763 | 0.159 | 1.27 | 0.974 | 1.43 | 1.11 | 0.624 | 0.547 | 0.224 | 0.156 | 0.193 | 0.191 | 0.173 | 0.21
3 | NCI-H838 | 1.03 | 1.15 | 1.12 | 0.645 | 0.522 | 0.886 | 0.92 | 0.959 | 0.675 | 0.699 | 0.631 | 0.482 | 0.341 | 0.249 | 0.262 | 0.172 | 0.179
4 | H3255 | 0.84 | 1.08 | 1.04 | 0.8 | 0.725 | 0.782 | 0.937 | 0.853 | 0.864 | 0.534 | 0.58 | 0.526 | 0.594 | 0.573 | 0.561 | 0.616 | 0.638
5 | NCI-H1437 | 1.01 | 1.26 | 1.24 | 0.904 | 0.49 | 0.795 | 0.956 | 1.02 | 0.855 | 0.619 | 0.624 | 0.633 | 0.548 | 0.312 | 0.313 | 0.316 | 0.332
6 | NCI-H358 | 0.889 | 0.752 | 0.723 | 0.418 | 0.336 | 0.693 | 0.709 | 0.684 | 0.562 | 0.556 | 0.507 | 0.351 | 0.293 | 0.199 | 0.168 | 0.183 | 0.185
7 | LU99A | 0.518 | 0.499 | 0.572 |  | 0.197 | 0.527 | 0.596 | 0.685 | 0.549 | 0.188 | 0.198 | 0.199 | 0.186 | 0.165 | 0.142 | 0.18 | 0.156
8 | SK-MES-1 | 1.04 | 1.13 | 1.1 | 0.569 | 0.488 | 0.959 | 1.01 | 1.12 | 0.9 | 0.603 | 0.636 | 0.423 | 0.323 | 1.04 | 0.816 | 0.955 | 0.64
9 | HCC-827 | 0.975 | 0.929 | 0.937 | 0.886 | 0.477 | 0.963 | 1.01 | 0.936 | 0.931 | 0.612 | 0.728 | 0.608 | 0.504 | 0.295 | 0.268 | 0.281 | 0.256
10 | LK-2 | 0.513 | 0.573 | 0.641 | 0.379 | 0.11 | 0.327 | 0.32 | 0.296 | 0.283 | 0.657 | 0.459 | 0.394 | 0.28 | 0.314 | 0.331 | 0.188 | 0.142
11 | HCC-366 | 0.676 | 0.776 | 0.87 |  | 0.0785 | 0.696 | 0.628 | 0.864 | 0.634 | 0.334 |  | 0.189 | 0.095 | 0.187 |  | 0.152 | 0.104
12 | BEN | 0.946 | 1.22 | 0.981 | 0.877 | 0.708 | 0.849 | 0.879 | 0.91 | 1.1 | 0.827 | 1.02 | 1.02 | 0.914 | 0.726 | 0.792 | 0.953 | 0.935
13 | NCI-H23 | 0.494 | 0.7 | 0.7 | 0.56 | 0.459 | 0.744 | 0.667 | 0.678 | 0.398 | 0.221 | 0.245 | 0.238 | 0.172 | 0.797 | 0.562 | 0.767 | 0.31
14 | 201T | 0.995 | 1.06 | 1.07 | 0.915 | 0.824 | 0.954 | 1.05 | 1.04 | 1.03 | 0.802 | 0.856 | 0.807 | 0.806 | 0.333 | 0.315 | 0.313 | 0.34
15 | NCI-H520 | 0.897 | 1.09 | 1.07 | 0.486 | 0.295 | 0.789 | 0.726 | 0.258 | 0.114 | 0.261 | 0.202 | 0.221 | 0.153 | 0.67 | 0.395 | 0.239 | 0.149
16 | HCC-15 | 0.856 | 0.914 | 1.01 |  | 0.776 | 0.785 | 0.853 | 0.907 | 0.831 | 0.67 | 0.642 | 0.467 | 0.35 | 0.225 | 0.22 | 0.237 | 0.199
17 | LCLC-103H | 1.04 | 1.2 | 0.976 | 1.14 | 0.792 | 1.08 | 1.03 | 1.14 | 1.09 | 0.877 | 0.741 | 0.697 | 0.688 | 0.497 | 0.453 | 0.508 | 0.471
18 | NCI-H460 | 0.824 | 0.8 | 1.17 |  | 0.0646 | 1.02 | 0.91 | 1.17 | 0.897 | 0.399 | 0.375 | 0.184 | 0.143 | 0.0681 | 0.0617 | 0.0618 | 0.0602
19 | EPLC-272H | 1.1 | 1.18 | 1.15 | 0.717 | 0.564 | 0.884 | 1.03 | 1.01 | 1.11 | 0.72 | 0.704 | 0.581 | 0.442 | 0.327 | 0.339 | 0.312 | 0.413
